Data taken from patent US10369160B2, “Methods of treating cancer” (Intercept Pharmaceuticals, Inc., priority 2016, dated 2019).

Legend:
[1] = system: fibroblast growth factor 15 (Fgf15); experiment: Ileal FXR target gene expression, Fgf15, in Mdr2^−/− mice; assay type: in vivo; conditions: Mdr2^−/− groups only (not FXR^−/−)
From the text: (§1) As expected, both INT-747 and INT-767 stimulated fibroblast growth factor 15 (Fgf15) and small heterodimer partner (Shp) gene expression in Mdr2^−/− groups only (FIGS. 7A and 7B).

[2] = system: small heterodimer partner (Shp); experiment: Ileal FXR target gene expression, Shp, in Mdr2^−/− mice; assay type: in vivo; conditions: Mdr2^−/− groups only (not FXR^−/−)
From the text: as §1

[3] = system: Cholesterol 7 alpha-hydroxylase (cyp7a1); experiment: Hepatic FXR target gene expression, Cyp7a1, in Mdr2^−/− mice; assay type: in vivo; conditions: Mdr2^−/− mice only (not FXR^−/−)
From the text: Cholesterol 7 alpha-hydroxylase (cyp7a1) is the rate limiting enzyme in the classical biosynthetic pathways which convert cholesterol into bile acids. Both INT-767 and INT-747 inhibited Cyp7a1 gene expression in Mdr2^−/− mice only (FIG. 8). The bile salt export pump (Bsep) is a membrane protein that uses energy of ATP hydrolysis to actively transport bile acid salts.

[4] = system: bile salt export pump (Bsep); experiment: Hepatic FXR target gene expression, Bsep, in Mdr2^−/− mice; assay type: in vivo
From the text: Cholesterol 7 alpha-hydroxylase (cyp7a1) is the rate limiting enzyme in the classical biosynthetic pathways which convert cholesterol into bile acids. […] The bile salt export pump (Bsep) is a membrane protein that uses energy of ATP hydrolysis to actively transport bile acid salts.

FXR^−/− mice = experiment: Hepatocarcinogenesis in FXR^−/− mice (tumors, LW/BW, ALT/AST, serum bile acids); conditions: for liver tumors found: diet 10 mg/kg for 15 months
Experimental: The effects of INT-747, INT-767, and control diet in Mdr2^−/− and FXR^−/− mice on the development of hepatocellular carcinoma were evaluated.
(§2) Mdr2^−/− and FXR^−/− mice were randomly divided into three experimental groups.
The mice were fed a specific rodent diet or a diet supplemented with INT-747, INT-767, or control diet for 15 months. All mice were housed under pathogen-free conditions in a temperature-controlled room (23° C.) on a 12-hour light/dark cycle and drank water ad libitum. […] After 16 months, the mice were sacrificed and serum, liver and intestine were collected. The total number of hepatic tumors was counted and the diameter of each tumor was measured.
(§3) • Mice (n=4) were fed control diet for 15 months. Group 2: INT-747 • Mice (n=8) were fed control diet supplemented with OCA at a dose of 10 mg/kg for 15 months. Group 3: INT-767 • Mice (n=15) were fed control diet supplemented with INT-767 at a dose of 10 mg/kg for 15 months.

Mdr2^−/− mice = experiment: Hepatocarcinogenesis in Mdr2^−/− mice (tumors, LW/BW, ALT/AST, serum bile acids)
Experimental: The effects of INT-747, INT-767, and control diet in Mdr2^−/− and FXR^−/− mice on the development of hepatocellular carcinoma were evaluated. INT-747 is a FXR agonist while INT-767 is a dual FXR/TGR5 agonist.
as §2
The mice were fed a specific rodent diet or a diet supplemented with INT-747, INT-767, or control diet for 15 months. […] After 16 months, the mice were sacrificed and serum, liver and intestine were collected. The total number of hepatic tumors was counted and the diameter of each tumor was measured.
as §3

FXR = biological target: T1, FXR (Homo sapiens, UniProt Q96RI1); experiment: Potency for FXR (INT-767 versus INT-747); conditions: greater than INT-747
T1 sequence (Q96RI1 1-486): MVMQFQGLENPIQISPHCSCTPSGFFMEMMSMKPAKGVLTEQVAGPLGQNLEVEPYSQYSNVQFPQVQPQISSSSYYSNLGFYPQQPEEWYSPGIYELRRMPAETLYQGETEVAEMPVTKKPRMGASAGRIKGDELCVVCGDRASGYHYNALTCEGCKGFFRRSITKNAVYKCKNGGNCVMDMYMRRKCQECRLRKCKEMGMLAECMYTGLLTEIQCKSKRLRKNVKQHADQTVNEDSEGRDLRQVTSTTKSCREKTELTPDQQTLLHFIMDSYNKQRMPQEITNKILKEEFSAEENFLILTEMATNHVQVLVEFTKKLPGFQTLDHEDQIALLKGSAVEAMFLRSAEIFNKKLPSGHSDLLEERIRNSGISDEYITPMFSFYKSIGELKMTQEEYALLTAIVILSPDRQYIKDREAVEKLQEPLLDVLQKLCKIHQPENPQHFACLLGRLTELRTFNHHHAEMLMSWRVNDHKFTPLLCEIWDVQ

Row | Compound | ileal Fgf15 gene expression [1] | ileal Shp gene expression [2] | hepatic Cyp7a1 gene expression [3] | hepatic Bsep induction [4] | liver tumors found (FXR^−/− mice) | liver tumors found (appearance/size) (Mdr2^−/− mice; diet 10 mg/kg for 15 months) | tumors with a diameter larger than 5 mm (Mdr2^−/− mice; diet 10 mg/kg for 15 months) | potency for FXR relative to INT-747 (FXR) | ALT levels (FXR^−/− mice) | AST levels (FXR^−/− mice) | LW/BW ratio (liver weight/body weight) (FXR^−/− mice) | serum bile acid levels (FXR^−/− mice) | serum bile acid levels (Mdr2^−/− mice) | LW/BW ratio (liver weight/body weight) (Mdr2^−/− mice; compared to control and INT-747 treated mice) | hepatocellular carcinoma development (number of hepatic tumors) (Mdr2^−/− mice; diet 10 mg/kg for 15 months, compared to control) | ALT levels (Mdr2^−/− mice; vs control) | AST levels (Mdr2^−/− mice; vs control)
1 | CC[C@H]1[C@@H](O)[C@@H]2[C@H](CC[C@]3(C)[C@@H]([C@H](C)CCC(=O)O)CC[C@@H]23)[C@@]2(C)CC[C@@H](O)C[C@@H]12 [INT-747, 6α-ethyl-3α,7α-dihydroxy-5β-cholan-24-oic acid] | stimulated | stimulated | inhibited | did not promote hepatic Bsep induction | several large liver tumors | clearly identifiable liver tumors | ~80% |  |  |  |  |  |  |  |  |  | 
2 | CC[C@H]1[C@@H](O)[C@@H]2[C@H](CC[C@]3(C)[C@@H]([C@H](C)CCOS(=O)(=O)[O-])CC[C@@H]23)[C@@]2(C)CC[C@@H](O)C[C@@H]12.[Na+] [INT-767, 6α-ethyl-3α,7α,23-trihydroxy-24-nor-5β-cholan-23-sulphate sodium] | stimulated | stimulated |  | induced hepatic Bsep activation | several large liver tumors | minute tumors |  | about 10 fold | no difference | no difference | No difference | no reduction occurred | significantly reduced | significant reduction | clearly prevented hepatocellular carcinoma development | significantly reduced | significantly reduced
3 | CC[C@H]1[C@@H](O)C2C3CC[C@H]([C@H](C)CCOS(=O)(=O)[O-])[C@@]3(C)CCC2[C@@]2(C)CC[C@@H](O)C[C@@H]12.[Na+] (stereo partly drawn) [INT-767, 6α-ethyl-3α,7α,23-trihydroxy-24-nor-5β-cholan-23-sulphate sodium] |  |  | inhibited |  |  |  |  |  |  |  |  |  |  |  |  |  | 
